Experimental data reported in publication PMC10424673 (Journal of Medicinal Chemistry, 2023).
One block for each compound: values may come before it. Where a SMILES comes first, the peptide text is derived from it. [ ]: non-standard residue; d: D form. The star is where a group is joined. NHNH2 = NN*

Assays:
GLP-2R [1] = target: T1, GLP-2R (Homo sapiens, UniProt O95838); set-up: method as in PMID 36780786; settings: cited from earlier work
T1 construct: host or cells: CHO-K1 PathHunter reporter cells
T1 sequence (P32121 whole entry partner, one chain of several): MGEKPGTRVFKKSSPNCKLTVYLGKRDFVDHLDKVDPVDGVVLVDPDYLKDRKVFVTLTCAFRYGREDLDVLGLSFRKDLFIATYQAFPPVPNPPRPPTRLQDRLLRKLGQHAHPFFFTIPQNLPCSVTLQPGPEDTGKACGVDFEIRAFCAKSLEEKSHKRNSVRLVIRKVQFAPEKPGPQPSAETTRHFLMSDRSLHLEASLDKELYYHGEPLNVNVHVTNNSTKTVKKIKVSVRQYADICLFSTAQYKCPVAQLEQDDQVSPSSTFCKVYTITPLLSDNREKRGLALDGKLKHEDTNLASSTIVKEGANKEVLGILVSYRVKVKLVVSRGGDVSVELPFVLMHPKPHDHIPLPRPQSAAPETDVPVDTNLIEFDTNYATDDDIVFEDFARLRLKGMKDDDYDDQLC

GLP-2R [2] = target: T1, GLP-2R; set-up: method as in 2 sources, one per row (each row's own in cited_ref): ref 28 (Gadgaard et al.) ||| ref 28 = [28]; PMID 36780786; doi:10.1016/j.biopha.2023.114383; Gadgaard S.; Windeløv J. A.; Schiellerup S. P.; Holst J. J.; Hartmann B.; Rosenkilde M. M. Long-Acting Agonists of Human and Rodent Glp-2 Receptors for Studies of the Physiology and Pharmacologic; settings: cited from earlier work
hGLP-2R = target: T2, hGLP-2R (Homo sapiens, UniProt O95838); test: HTRF cAMP assay in GLP-2R-expressing HEK293 cells; assay type: cell-based
T2 construct: expressed in transfected cells
T2 sequence (O95838 1-553): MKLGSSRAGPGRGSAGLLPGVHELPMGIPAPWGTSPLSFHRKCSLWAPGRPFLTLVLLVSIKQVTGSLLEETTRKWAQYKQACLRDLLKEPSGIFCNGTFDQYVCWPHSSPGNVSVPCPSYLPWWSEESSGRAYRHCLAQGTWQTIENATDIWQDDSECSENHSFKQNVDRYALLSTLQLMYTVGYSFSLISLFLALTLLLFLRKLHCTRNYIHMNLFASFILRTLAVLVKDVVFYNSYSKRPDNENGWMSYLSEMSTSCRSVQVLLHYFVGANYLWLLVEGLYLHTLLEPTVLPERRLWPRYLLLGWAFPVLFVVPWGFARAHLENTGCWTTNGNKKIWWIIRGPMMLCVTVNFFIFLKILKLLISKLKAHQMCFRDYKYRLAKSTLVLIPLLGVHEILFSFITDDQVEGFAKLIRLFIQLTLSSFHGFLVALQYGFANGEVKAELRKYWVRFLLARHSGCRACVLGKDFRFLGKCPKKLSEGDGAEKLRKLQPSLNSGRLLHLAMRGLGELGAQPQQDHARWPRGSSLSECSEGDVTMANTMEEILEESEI

DPP-IV = DPP-IV (Homo sapiens, UniProt P27487); settings: 20 μM peptide, DPP-IV 50 μg/mL, 100 mM Tris pH 8.0, 2.5 h, SDS-PAGE densitometry and mass spectrometry
DPP-IV, sequence (P27487 whole entry, species assumed): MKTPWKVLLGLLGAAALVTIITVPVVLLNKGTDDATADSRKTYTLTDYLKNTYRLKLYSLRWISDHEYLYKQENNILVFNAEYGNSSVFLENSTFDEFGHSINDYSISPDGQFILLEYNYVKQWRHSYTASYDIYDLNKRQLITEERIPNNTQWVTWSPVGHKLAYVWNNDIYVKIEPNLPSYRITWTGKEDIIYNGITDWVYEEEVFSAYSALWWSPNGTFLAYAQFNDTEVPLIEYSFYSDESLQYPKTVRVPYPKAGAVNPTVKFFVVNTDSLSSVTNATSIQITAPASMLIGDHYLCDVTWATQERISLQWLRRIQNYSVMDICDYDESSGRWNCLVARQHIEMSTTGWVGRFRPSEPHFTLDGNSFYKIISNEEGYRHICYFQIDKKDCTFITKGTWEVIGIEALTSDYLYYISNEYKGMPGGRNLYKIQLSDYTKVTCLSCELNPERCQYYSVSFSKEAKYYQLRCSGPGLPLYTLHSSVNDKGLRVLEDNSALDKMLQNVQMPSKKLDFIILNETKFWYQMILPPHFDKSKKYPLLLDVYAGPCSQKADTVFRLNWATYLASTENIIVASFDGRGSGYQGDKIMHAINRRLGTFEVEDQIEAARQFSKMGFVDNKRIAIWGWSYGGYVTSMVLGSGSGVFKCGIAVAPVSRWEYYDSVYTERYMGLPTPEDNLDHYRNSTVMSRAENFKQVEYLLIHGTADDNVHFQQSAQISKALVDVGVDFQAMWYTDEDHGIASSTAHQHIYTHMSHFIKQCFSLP

proteinase K = proteinase K (Parengyodontium album, UniProt P06873); settings: 20 μM peptide, ProtK 100 μg/mL, 10 mM Tris-base, 10 mM NaCl, pH 7.4, 5 μM CaCl2, 37 °C, SDS-PAGE Coomassie densitometry normalised to T0, repeated three times
proteinase K, sequence (P06873 106-384): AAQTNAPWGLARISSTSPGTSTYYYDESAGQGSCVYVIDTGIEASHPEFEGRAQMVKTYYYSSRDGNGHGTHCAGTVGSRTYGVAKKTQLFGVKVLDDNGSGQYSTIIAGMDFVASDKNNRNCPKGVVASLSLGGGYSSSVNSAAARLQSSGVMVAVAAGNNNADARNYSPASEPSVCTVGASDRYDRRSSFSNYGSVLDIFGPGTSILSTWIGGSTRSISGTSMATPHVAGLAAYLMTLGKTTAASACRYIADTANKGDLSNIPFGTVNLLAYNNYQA

[3] = test system: GFP under CREB in HEK293 cells stably expressing hGLP-2R; test: Western blot of GFP expression under control of CREB in HEK293 cells stably expressing hGLP-2R; assay type: cell-based, human; settings: 10 μM peptide, after 36 hours of incubation, mean ± sd, n = 3
Excerpt: We then investigated the downstream effects of stimulating GLP-2R with the D-GLP-2 analogues to study the D-peptide designs’ effects on GLP-2R. We wanted to determine whether activating GLP-2R with D-GLP-2 analogues would promote GFP expression in HEK293 cells containing a GFP gene under the control of cAMP response element binding protein (CREB) and AKT phosphorylation. We also checked the beta-actin expression in all the treatments as loading controls. Of relevance, all peptides induced a similar GFP expression under the CREB, reaching saturation between 24 and 48 h of incubation (Figures 5E,F, S1A, Table S3). We also found a concentration-dependent increase in GFP expression in response to all the peptides’ stimulation (Figure S1B).
The cells were lysed with a lysis buffer 50 mM Tris-HCl pH 7.4, 1% Nonidet P-40, 150 mM NaCl, 1 mM ethylenediaminetetraacetic acid, 10 mM Na3VO4, 10 mM sodium pyrophosphate, and 25 mM NaF, 1× protease inhibitor mixture (Sigma) for 30 min at 4 °C. […] The transferred samples were immunoblotted with primary antibodies, followed by incubation with horseradish peroxidase-conjugated secondary antibodies (Santa Cruz Biotechnology) and detected using enhanced chemiluminescence (GE Healthcare).

Compound: GLP-2_3–33: the product of DPP-IV inactivation of GLP-2_1–33 (DGSFSDEMNTILDNLAARDFINWLIQTKITD; Glucagon-like peptide 2; UniProt P01275 148-178, looked up, fragment)
β-arrestin 1 and 2 recruitment (GLP-2R [1]): could not recruit β-arrestin 1 and 2 | mode of action at GLP-2R (GLP-2R [2]): competitive antagonist of GLP-2_1–33 | efficacy at GLP-2R (GLP-2R [2]; ref 28 (Gadgaard et al.)): 11%

Compound: CC[C@@H](C)[C@@H](NC(C)=O)C(=O)N[C@H](CCCCN)C(=O)N[C@H](C)C(=O)N[C@H](CCC(N)=O)C(=O)N[C@H](Cc1c[nH]c2ccccc12)C(=O)N[C@H](CC(C)C)C(=O)N[C@H](C)C(=O)N[C@H](C)C(=O)N[C@H](CCC(=O)O)C(=O)N[C@H](Cc1ccccc1)C(=O)N[C@@H](C(=O)N[C@H](CCC(N)=O)C(=O)N[C@H](C)C(=O)N[C@@H](C(=O)N[C@H](C)C(=O)N[C@H](C)C(=O)N[C@@H](C(=O)N[C@H](CC(C)C)C(=O)N[C@H](C)C(=O)N[C@H](CCSC)C(=O)N[C@H](CC(C)C)C(=O)N[C@H](CCCNC(=N)N)C(=O)N[C@H](CC(N)=O)C(=O)N[C@H](CC(N)=O)C(=O)N[C@H](CCC(N)=O)C(=O)N[C@H](Cc1ccccc1)C(=O)N[C@H](CCC(=O)O)C(=O)N[C@H](Cc1ccccc1)C(=O)N[C@H](C)C(=O)NCC(=O)N[C@@H](C(=O)N[C@H](CCC(=O)O)C(=O)N[C@H](Cc1c[nH]cn1)C(N)=O)C(C)C)C(C)C)C(C)C)[C@H](C)CC [D-GLP-2] (Ac-[dI][dK][dA][dQ][dW][dL][dA][dA][dE][dF][dI][dQ][dA][dV][dA][dA][dV][dL][dA][dM][dL][dR][dN][dN][dQ][dF][dE][dF][dA]G[dV][dE][dH]-NH2)
EC50 (hGLP-2R): 1.42 µM | times less potent (weaker EC50) than native L-GLP-2 (hGLP-2R; ratio of cAMP EC50 to that of GLP-2): 35 times

peptide remaining after incubation with DPP-IV (DPP-IV): remained intact | peptide remaining after proteinase K exposure, 2 h (proteinase K): almost complete loss
Compound: CC[C@H](C)[C@H](NC(=O)[C@H](Cc1ccccc1)NC(=O)[C@H](CC(=O)O)NC(=O)[C@H](CCCNC(=N)N)NC(=O)[C@H](C)NC(=O)[C@H](C)NC(=O)[C@H](CC(C)C)NC(=O)[C@H](CC(N)=O)NC(=O)[C@H](CC(=O)O)NC(=O)[C@H](CC(C)C)NC(=O)[C@@H](NC(=O)[C@@H](NC(=O)[C@H](CC(N)=O)NC(=O)[C@H](CCSC)NC(=O)[C@H](CCC(=O)O)NC(=O)[C@H](CC(=O)O)NC(=O)[C@H](CO)NC(=O)[C@H](Cc1ccccc1)NC(=O)[C@H](CO)NC(=O)CNC(=O)[C@H](CC(=O)O)NC(=O)CNC(=O)[C@@H](N)Cc1c[nH]cn1)[C@@H](C)O)[C@@H](C)CC)C(=O)N[C@@H](CC(N)=O)C(=O)N[C@@H](Cc1c[nH]c2ccccc12)C(=O)N[C@@H](CC(C)C)C(=O)N[C@H](C(=O)N[C@@H](CCC(N)=O)C(=O)N[C@H](C(=O)N[C@@H](CCCCN)C(=O)N[C@H](C(=O)N[C@H](C(=O)N[C@@H](CC(=O)O)C(=O)O)[C@@H](C)O)[C@@H](C)CC)[C@@H](C)O)[C@@H](C)CC [L-GLP-2-2G]

Compound: CC[C@@H](C)[C@@H](NC(C)=O)C(=O)N[C@H](CCCCN)C(=O)N[C@H](C)C(=O)N[C@H](CCC(N)=O)C(=O)N[C@H](Cc1c[nH]c2ccccc12)C(=O)N[C@H](CC(C)C)C(=O)N[C@H](C)C(=O)N[C@H](C)C(=O)N[C@H](CCC(=O)O)C(=O)N[C@H](Cc1ccccc1)C(=O)N[C@@H](C(=O)N[C@H](CCC(N)=O)C(=O)N[C@H](C)C(=O)N[C@@H](C(=O)N[C@H](C)C(=O)N[C@H](C)C(=O)N[C@@H](C(=O)N[C@H](CC(C)C)C(=O)N[C@H](C)C(=O)N[C@H](CCSC)C(=O)N[C@H](CC(C)C)C(=O)N[C@H](CCCNC(=N)N)C(=O)N[C@H](CC(N)=O)C(=O)N[C@H](CC(N)=O)C(=O)N[C@H](CCC(N)=O)C(=O)N[C@H](Cc1ccccc1)C(=O)N[C@H](CCC(=O)O)C(=O)N[C@H](Cc1ccccc1)C(=O)N[C@H](C)C(=O)NCC(=O)N[C@@H](C(=O)N[C@H](C)C(=O)N[C@H](Cc1c[nH]cn1)C(=O)NN)C(C)C)C(C)C)C(C)C)[C@H](C)CC [D-GLP-2 E33A hydrazide] (Ac-[dI][dK][dA][dQ][dW][dL][dA][dA][dE][dF][dI][dQ][dA][dV][dA][dA][dV][dL][dA][dM][dL][dR][dN][dN][dQ][dF][dE][dF][dA]G[dV][dA][dH]-NHNH2)
GFP relative expression level, relative to L-GLP-2-treated cells [3]: 1.08 ± 0.14 | EC50 (hGLP-2R): 0.226 µM | improvement of GLP-2R activation compared to D-GLP-2 (hGLP-2R; ratio of cAMP EC50 values, compared to D-GLP-2): 6.26 fold
